Results from patent US8192962B2, “Processes for detecting toxic substances” (Daikin Industries, Ltd., priority 2001, dated 2012).

System: Mitochondria-located protein genes
Assay: DNA chip mRNA expression in yeast, mitochondria-located protein genes (Table 2)
Type: cell-based, Saccharomyces cerevisiae S288C
Details: cells incubated two hours with the chemical substance
In short: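 S. cerevisiae S288C grown at 25° C in YPD were exposed in log phase for two hours to one toxic chemical at a growth-inhibiting, non-lethal concentration; untreated cells served as control. Poly(A) mRNA was reverse-transcribed with Cy3/Cy5-dUTP and hybridized to a whole-genome yeast DNA chip at 65° C for over 12 hours; values are fluorescence ratios versus untreated.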

Measured: The level of expressed mRNA in the presence of chemical substance/The level of expressed mRNA in the absence of chemical substance

CN(C)C(=S)SSC(=S)N(C)C [(10), Tetramethylthiuram disulfide]
5.9: yeast gene YKL142W
1.8: yeast gene YCR083W | yeast gene YGR076C | yeast gene YKL016C | yeast gene YML054C | yeast gene YNL073W | yeast gene YOR150W
13.3: yeast gene YDR258C
1.7: yeast gene YKL148C | yeast gene YOR130C | yeast gene YPR024W
1.0: yeast gene YNL055C | yeast gene YOR037W
2.7: yeast gene YDL198C
2.3: yeast gene YPR134W
0.5: yeast gene YKL141W | yeast gene YOR176W
2.1: yeast gene YCL057W
2.8: yeast gene YPL135W
2.6: yeast gene YLR259C | yeast gene YMR023C | yeast gene YOR020C | yeast gene YOR100C
1.4: yeast gene YBR122C | yeast gene YCR046C | yeast gene YDR231C | yeast gene YGL018C | yeast gene YGR062C | yeast gene YJL096W | yeast gene YJL133W | yeast gene YJL180C | yeast gene YKL194C | yeast gene YOL096C
0.6: yeast gene YDR529C | yeast gene YEL024W | yeast gene YGL187C | yeast gene YNL256W
1.9: yeast gene YPR047W
2.2: yeast gene YAL039C | yeast gene YJL102W | yeast gene YKL003C | yeast gene YLR304C | yeast gene YML129C
1.3: yeast gene YBR003W | yeast gene YBR221C | yeast gene YER178W | yeast gene YGL191W | yeast gene YJR121W | yeast gene YLR348C | yeast gene YMR152W | yeast gene YPR037C
2.4: yeast gene YGR008C | yeast gene YHR008C | yeast gene YKR066C
2.5: yeast gene YMR089C
5.8: yeast gene YPL262W
3.0: yeast gene YJR045C
1.1: yeast gene YBR251W | yeast gene YGR244C | yeast gene YKL170W | yeast gene YMR083W
1.5: yeast gene YBL038W | yeast gene YML120C | yeast gene YOR142W
1.6: yeast gene YBR091C | yeast gene YBR185C | yeast gene YDR298C | yeast gene YDR347W | yeast gene YMR035W
0.9: yeast gene YBL030C | yeast gene YBR282W | yeast gene YDL067C | yeast gene YDR377W | yeast gene YGR082W | yeast gene YLR038C | yeast gene YLR395C
2.0: yeast gene YGR028W | yeast gene YNL104C | yeast gene YOR316C
1.2: yeast gene YBL022C | yeast gene YBR044C | yeast gene YEL039C | yeast gene YJL166W | yeast gene YLR295C | yeast gene YMR203W | yeast gene YNL071W | yeast gene YPL040C | yeast gene YPL215W
0.8: yeast gene YDL181W | yeast gene YDR079W | yeast gene YDR178W | yeast gene YLL041C | yeast gene YMR267W | yeast gene YOR187W | yeast gene YPL134C
0.7: yeast gene YBL099W | yeast gene YGR174C | yeast gene YJR077C
2.9: yeast gene YFL016C | yeast gene YIL155C
